For six compounds, IC50 and Activity results are on record in ChEMBL document CHEMBL4428075, “New antiproliferative 7-(4-(N-substituted carbamoylmethyl)piperazin-1-yl) derivatives of ciprofloxacin induce cell cycle arrest at G2/M phase” (Bioorg Med Chem, 2016).

A value given as a limit tells only on which side of the number the result lay.

The subject of experiment [1] is A549. As to the kind of experiment: Antiproliferative activity against human A549 cells after 24 hrs by BrdU incorporation assay. The class given is functional, cell-based. Particulars: A549, 24 h.
The test system of a further experiment is WI-38. As to the kind of experiment: Antiproliferative activity against human WI38 cells after 24 hrs by BrdU incorporation assay. The class given is cell-based. Conditions: WI-38, 24 h.
The test system of experiment [2] is A549. The experiment can be described thus: Induction of cell cycle arrest in human A549 cells assessed as accumulation at G1 phase at 100 uM after 24 hrs by FITC-labeled anti-BrdU antibody/7AAD staining based FACS calibur flow cytometric analysis (reference value: 65.9 %). Type of experiment: functional.
Experiment [3] has as its system A549. The experiment can be described thus: Induction of cell cycle arrest in human A549 cells assessed as accumulation at G2/M phase at 100 uM after 24 hrs by FITC-labeled anti-BrdU antibody/7AAD staining based FACS calibur flow cytometric analysis (reference value: 12.61 %). Type of experiment: functional.
Experiment [4] relates to A549. The experiment can be described thus: Induction of cell cycle arrest in human A549 cells assessed as accumulation at S phase at 100 uM after 24 hrs by FITC-labeled anti-BrdU antibody/7AAD staining based FACS calibur flow cytometric analysis (reference value: 20.9 %). Type of experiment: functional.
Experiment [5] relates to A549. The experiment can be described thus: Induction of cell cycle arrest in human A549 cells assessed as accumulation at sub G1 phase at 100 uM after 24 hrs by FITC-labeled anti-BrdU antibody/7AAD staining based FACS calibur flow cytometric analysis (reference value: 0.82 %). Type of experiment: functional.
Experiment [6] deals with A549. The experiment can be described thus: Induction of cell cycle arrest in human A549 cells assessed as accumulation at G1 phase at 1 uM after 24 hrs by FITC-labeled anti-BrdU antibody/7AAD staining based FACS calibur flow cytometric analysis (reference value: 65.9 %). The class given is functional.
For experiment [7], the system named is A549. As to the kind of experiment: Induction of cell cycle arrest in human A549 cells assessed as accumulation at G2/M phase at 1 uM after 24 hrs by FITC-labeled anti-BrdU antibody/7AAD staining based FACS calibur flow cytometric analysis (reference value: 12.61 %). Type of experiment: functional.
Experiment [8] has as its system A549. The experiment can be described thus: Induction of cell cycle arrest in human A549 cells assessed as accumulation at S phase at 1 uM after 24 hrs by FITC-labeled anti-BrdU antibody/7AAD staining based FACS calibur flow cytometric analysis (reference value: 20.9 %). Type of experiment: functional.
The subject of experiment [9] is A549. The experiment can be described thus: Induction of cell cycle arrest in human A549 cells assessed as accumulation at sub G1 phase at 1 uM after 24 hrs by FITC-labeled anti-BrdU antibody/7AAD staining based FACS calibur flow cytometric analysis (reference value: 0.82 %). Type of experiment: functional.

For `O=C(O)c1cn(C2CC2)c2cc(N3CCNCC3)c(F)cc2c1=O` [CIPROFLOXACIN], the IC50 with A549 [1] and in the experiment with WI-38 was greater than 100 µM each time. Further, the Activity is on record as 61% with A549 [2], 16.8% with A549 [3], 3.8% in the experiment on A549 [4] and 9.5% with A549 [5].
As to `COc1cccc2c1C(=O)c1c(O)c3c(c(O)c1C2=O)C[C@@](O)(C(=O)CO)C[C@@H]3O[C@H]1C[C@H](N)[C@H](O)[C@H](C)O1` [DOXORUBICIN], the Activity in the experiment on A549 [6] stood at 56.5%; in the experiment with A549 [7], 22.5%; in the experiment with A549 [8], 15.4%; with A549 [9], 6.75%. The compound further displayed an IC50 with WI-38 of 12.3 µM.
With `O=C(CN1CCN(c2cc3c(cc2F)c(=O)c(C(=O)O)cn3C2CC2)CC1)Nc1ccccc1`, the IC50 with A549 [1] and with WI-38 was greater than 100 µM throughout.
In the case of `O=C(CN1CCN(c2cc3c(cc2F)c(=O)c(C(=O)O)cn3C2CC2)CC1)NC1CCCCC1`, the IC50 with A549 [1] was 20.7 µM; with WI-38 it was greater than 100 µM.
Take `COc1ccccc1NC(=O)CN1CCN(c2cc3c(cc2F)c(=O)c(C(=O)O)cn3C2CC2)CC1`: the IC50 in the experiment on A549 [1] and in the experiment with WI-38 was greater than 100 µM each time.
Take `Cc1ccc(NC(=O)CN2CCN(c3cc4c(cc3F)c(=O)c(C(=O)O)cn4C3CC3)CC2)cc1`: the IC50 is 23.6 µM in the experiment on A549 [1] and greater than 100 µM in the experiment on WI-38.
